Experimental data published in patent US20060063717A1, “Novel inhibitor of beta amyloid cleavage” (Pfizer Inc, priority 2001, published 2006).
pIC50: −log10 of the molar value. *1 amine or outer side, *2 acyl side, *3 side chain or, on linkers, in order; H or OH if unused. Where a SMILES comes first, the peptide text is derived from it. [ ]: non-standard residue; d: D form. X1 = CC(C)(O)[C@H](C[C@H](O)[C@H](CC1CCCCC1)N[*:1])C(=O)[*:2]

Molecular target: β-Secretase (Homo sapiens, UniProt P56817)
Sequence (P56817 46-501): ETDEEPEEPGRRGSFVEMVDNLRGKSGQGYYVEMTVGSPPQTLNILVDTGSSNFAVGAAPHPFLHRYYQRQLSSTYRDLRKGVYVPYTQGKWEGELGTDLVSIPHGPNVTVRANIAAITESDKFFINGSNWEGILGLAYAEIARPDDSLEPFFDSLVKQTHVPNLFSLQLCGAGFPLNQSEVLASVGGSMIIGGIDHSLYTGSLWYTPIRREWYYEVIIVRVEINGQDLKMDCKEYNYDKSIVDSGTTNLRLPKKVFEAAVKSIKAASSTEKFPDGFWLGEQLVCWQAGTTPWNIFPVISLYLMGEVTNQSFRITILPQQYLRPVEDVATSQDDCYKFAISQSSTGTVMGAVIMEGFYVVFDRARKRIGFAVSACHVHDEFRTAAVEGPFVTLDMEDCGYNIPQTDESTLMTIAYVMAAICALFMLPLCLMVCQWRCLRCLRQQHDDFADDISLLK
Conditions: in-vitro ELISA; βAP produced in presence of β-Secretase and APP versus control without inhibitor
Text: Such assays, which are well known in the art, measure the concentration of βAP produced (by detection of an antibody against the amino terminus of βAP) in the presence of β-Secretase and APP versus control experiments in the absence of inhibitor.

## CC(C)[C@H](NC(=O)[C@@H](N)CCC(=O)O)C(=O)N[C@@H](CC(N)=O)C(=O)N[C@@H](CC1CCCCC1)[C@@H](O)C[C@H](C(=O)N[C@H](C)C(=O)N[C@H](CCC(=O)O)C(=O)N[C@H](Cc1ccccc1)C(=O)O)C(C)(C)O [compound of formula I] (H-EVN[X1][dA][dE][dF]-OH)
  pIC50: 7.31
